Measured values as given in patent US20170157135A1 (Novogen Limited, priority 2013, published 2017).

Columns and labels:
[1] = tested on: SK-N-SH neuroblastoma cells; test: Anti-proliferative assay (cell-titre luminescent), SK-N-SH; type: cell-based; conditions: Homo sapiens, 72 hours, luminescence
In short: (§1)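 Cells were seeded at pre-determined densities in ATCC-recommended media and allowed to attach for 24 h at 37° C and 5% CO2. Compounds were then added at 30, 10, 3, 1, 0.3 and 0.1 μM for 72 hours, followed by cell-titre luminescent reagent for 30 minutes. EC50 values came from variable-slope sigmoidal fits of vehicle-normalized viability.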

[2] = tested on: PC3 prostate cancer cells; test: Anti-proliferative assay (cell-titre luminescent), PC3; type: cell-based; conditions: PC3, 72 hours, luminescence
In short: as §1

[3] = tested on: SKMEL28 melanoma (SK-MeI-28) cells; test: Cell viability assay (MTT), SKMEL28; type: cell-based; conditions: Homo sapiens, SK-MEL-28, 48 hr treatment
Method: (§2) Cell viability assays were also conducted to assess the anti-proliferative effects of the anti-tropomyosin compounds. Briefly, cells (1×10^3/well) were plated (96-well) and treated (48 hr) with anti-tropomyosin drug and viability measured using 3-(4,5-dimethylthiazol-2-yl)-2,5-diphenylterazolium bromide MTT. Cell viability was normalized to control (vehicle alone) and dose-response curves, and half maximal effective concentration (EC50) values were determined using Graph Pad Prism 5 (nonlinear regression sigmoidal dose-response variable slope).

[4] = tested on: DU145 prostate cancer cells; test: Anti-proliferative assay (cell-titre luminescent), DU145; type: cell-based; conditions: Homo sapiens, DU-145; DU145, 72 hours, luminescence
In short: as §1

A549 lung (NSLC) cells = test: Anti-proliferative assay (cell-titre luminescent), A549; type: cell-based; conditions: Homo sapiens; A549, 72 hours, luminescence
In short: as §1

[5] = tested on: CaCo2 colorectal cancer cells; test: Anti-proliferative assay (cell-titre luminescent), CaCo2; type: cell-based; conditions: Homo sapiens, Caco-2; CaCo2, 72 hours, luminescence
In short: as §1

SK-Mel-28 melanoma cells = test: Anti-proliferative assay (cell-titre luminescent), SK-Mel-28; type: cell-based; conditions: Homo sapiens; SK-Mel-28, 72 hours, luminescence
In short: as §1

actin cytoskeleton = test: Microfilament disruption assay (phalloidin actin staining); type: cell-based; conditions: 24 hours
Method: In silico modeling has identified binding sites on tropomyosin Tm5NM1, yielding the series of tropomyosin inhibitors the subject of the present invention. Inhibition of Tm5NM1 in tumour cells results in disruption of the actin cytoskeleton and ultimately cell death. The ability of compounds 2001-2012 to disrupt the actin cytoskeleton was assessed in vitro using the microfilament disruption assay. Briefly, cells were seeded (5×10^3/well) into 8-well chamber slides (NUNC) and treated with the concentrations of anti-tropomyosin compounds nominated in Table 1 for 24 hours using DMSO as vehicle control. Actin was visualized with Alexa 555 conjugated phalloidin (Molecular probes). Random fields were imaged using an Olympus IX81 microscope. Cells (n>50) were scored on the basis of positive filament staining from n=3 independent experiments.

[6] = tested on: SHEP neuroblastoma (SH-EP) cells; test: Cell viability assay (MTT), SHEP; type: cell-based; conditions: 48 hr treatment
Method: as §2

[7] = tested on: MDA-MB-231 breast cancer cells; test: Anti-proliferative assay (cell-titre luminescent), MDA-MB-231; type: cell-based; conditions: Homo sapiens; MDA-MB-231, 72 hours, luminescence
In short: as §1

Tm5NM1 = Tm5NM1 (Homo sapiens, UniProt P06753); test: Pyrene-based actin filament depolymerization assay, Tm5NM1-containing actin filaments; type: biochemical; conditions: 50 μM compound, p=0.1 vs F-actin alone
Tm5NM1, sequence (P06753 1-248 isoform P06753-2): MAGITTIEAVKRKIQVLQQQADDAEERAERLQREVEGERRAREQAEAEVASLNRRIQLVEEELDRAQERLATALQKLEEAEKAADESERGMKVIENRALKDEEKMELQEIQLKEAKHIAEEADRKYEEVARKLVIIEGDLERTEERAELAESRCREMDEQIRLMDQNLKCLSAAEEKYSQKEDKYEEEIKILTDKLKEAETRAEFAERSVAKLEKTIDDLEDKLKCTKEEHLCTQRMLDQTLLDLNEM
Method: FIG. 1: Impact of compound 2026 on Tm5NM1-regulated actin-filament depolymerization kinetics. (A and C) Depolymerization time course of 6 μM actin filaments (35% pyrene labelled) diluted 12-fold into F-actin buffer (100 mM NaCl, 10 mM Tris-HCl pH 7.0, 2 mM MgCl2, 1 mM EGTA, 0.2 mM CaCl2, 0.2 mM ATP, 0.5 mM DTT, 0.01% (v/v) NaN3) in the presence or absence of saturating amounts (10 μM) of Tm5NM1. Final concentration of F-actin and Tm5NM1 was 0.5 μM and 0.83 μM respectively. Tm5NM1 was pre-incubated with 50 μM compound 2026 or 1% (v/v) DMSO prior to mixing with F-actin. Depolymerization data is normalized to the initial fluorescence value. (B and D) Initial rates (V0) of depolymerization for F-actin alone or Tm5NM1/F-actin, in the presence of compound 2026. Initial rates of depolymerization were determined from the first 3600 s, fitted to a linear regression model. Data represents mean±SEM, averaged from n>6 replicates.
A brief overview and rationale of the assay is as follows: to promote depolymerization, pyrene-labelled actin filaments were diluted below the critical concentration of the pointed end (0.5 μM, as defined by Pollard et al., 1986). A decline in fluorescence was measured over time as actin monomers dissociate. […]
The depolymerization of F-actin alone and F-actin-coated with Tm5NM1 was then measured in the presence of compound and initial rates of depolymerization were compared. […]

Row | Compound | IC50 [1] [µM] | IC50 [2] [µM] | IC50 [3] [µM] | IC50 [4] [µM] | IC50 (A549 lung (NSLC) cells) [µM] | IC50 [5] [µM] | IC50 (SK-Mel-28 melanoma cells) [µM] | Microfilament disruption 10 μM (actin cytoskeleton) | IC50 [6] [µM] | IC50 [7] [µM] | Effect on Tm5NM1 function (protection of actin filaments from depolymerization) (Tm5NM1)
1 | COc1ccc2c(c1)c(/C=C/C(=O)N1CCN(CCc3ccccc3)CC1)c(C)n2CCCN(C)C [Compound 2009, (E)-3-(1-(3-(dimethylamino)propyl)-5-methoxy-2-methyl-1H-indol-3-yl)-1-(4-phenethylpiperazin-1-yl)prop-2-en-1-one] | 10.8 | 30 | 1.86 | 14.3 | 54.3 | 16.1 | 6.5 | no cells | 2.4 | 30 | –
2 | Cc1c(/C=C/C(=O)N2CCN(Cc3ccc(F)cc3)CC2)c2ccccc2n1CCCN(C)C [Compound 2003, (E)-3-(1-(3-(dimethylamino)propyl)-2-methyl-1H-indol-3-yl)-1-(4-(4-fluorobenzyl)piperazin-1-yl)prop-2-en-1-one] | – | – | 3.1 | – | – | – | – | no cells | 2.3 | – | –
3 | Cc1c(/C=C/C(=O)N2CCN(C(=O)c3ccccc3)CC2)c2ccccc2n1CCCN(C)C [Compound 2004, (E)-1-(4-benzoylpiperazin-1-yl)-3-(1-(3-(dimethylamino)propyl)-2-methyl-1H-indol-3-yl)prop-2-en-1-one] | – | – | 32.7 | – | – | – | – | – | 198 | – | –
4 | Cc1c(/C=C/C(=O)N2CCN(CCc3ccccc3)CC2)c2ccccc2n1CCCN1CCN(C)CC1 [Compound 2008, (E)-3-(2-methyl-1-(3-(4-methylpiperazin-1-yl)propyl)-1H-indol-3-yl)-1-(4-phenethylpiperazin-1-yl)prop-2-en-1-one] | – | – | 3.7 | – | – | – | – | no cells | 1.92 | – | –
5 | Cc1c(/C=C/C(=O)NCCc2ccccc2)c2ccccc2n1CCCN(C)C [Compound 2011, (E)-3-(1-(3-(dimethylamino)propyl)-2-methyl-1H-indol-3-yl)-N-phenethylacrylamide] | – | – | 12.1 | – | – | – | – | – | 13.2 | – | –
6 | CCN(CC)CCCn1c(C)c(/C=C/C(=O)N2CCN(CCc3cccc(F)c3)CC2)c2cc(OC)ccc21 [Compound 2026, (E)-3-(1-(3-(diethylamino)propyl)-5-methoxy-2-methyl-1H-indol-3-yl)-1-(4-(3-fluorophenethyl)piperazin-1-yl)prop-2-en-1-one] | 2.5 | 5.2 | – | 9.8 | 3.4 | 4.1 | 1.7 | – | – | 4.3 | interacts with and impairs Tm5NM1 function
7 | Cc1c(/C=C/C(=O)N2CCN(CCc3ccc(F)cc3)CC2)c2ccccc2n1CCCN(C)C [Compound 2002, (E)-3-(1-(3-(dimethylamino)propyl)-2-methyl-1H-indol-3-yl)-1-(4-(4-fluorophenethyl)piperazin-1-yl)prop-2-en-1-one] | 12.2 | 22.5 | 2.01 | 11.1 | 11.9 | 23.5 | 5.7 | no cells | 9.6 | 11.5 | –
8 | Cc1c(/C=C/C(=O)N2CCN(CCc3ccccc3)CC2)c2ccccc2n1CCN(C)C [Compound 2006, (E)-3-(1-(2-(dimethylamino)ethyl)-2-methyl-1H-indol-3-yl)-1-(4-phenethylpiperazin-1-yl)prop-2-en-1-one] | – | – | 157 | – | – | – | – | – | 12.5 | – | –
